Assay results: US6620828B2, “Thiazole compounds and pharmaceutical compositions for inhibiting protein kinases and methods for their use” (Agouron Pharmaceuticals, Inc., priority 1999, dated 2003)
Where two headings read alike, the source gives them in different places.

Tested on: human umbilical vein endothelial cells (HUVEC)
Test: HUVEC proliferation assay
Format: cell-based
Settings: for inhibition at 0.15 µM / inhibition at 0.01 µM / inhibition at 0.05 µM / inhibition at 0.001 µM: Homo sapiens, HUVEC; for inhibition at 0.15 µM / % inhibition @ 150 nM: Table I screening results, 150 nM; for inhibition at 0.01 µM: 10 nM; for inhibition at 0.05 µM: 50 nM; for inhibition at 0.001 µM: 1 nM
Summary of the method: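 Readout was MTT dye reduction (A595) after 72 h of stimulation with VEGF at 6 ng/ml final. Compound, in 0.1% DMSO final, was added 1 h before VEGF to HUVEC starved 24 h in 1% FBS. % inhibition was scaled between VEGF-alone and unstimulated wells; IC50 was fitted from triplicate dose curves.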

[1] = crude combinatorial amide library
[2] = crude combinatorial urea library, read-out: Inhibition of HUVEC Proliferation % inhibition @ 10 nM
[3] = crude combinatorial urea library, read-out: Inhibition of HUVEC Proliferation % inhibition @ 50 nM
[4] = table following Table II (untitled), crude combinatorial library
[5] = table following Table II (untitled), crude combinatorial library, read-out: % inhibition @ 10 nM
[6] = Inhibition of HUVEC Proliferation, crude combinatorial urea library, read-out: Inhibition @ 50 nM
[7] = Inhibition of HUVEC Proliferation, crude combinatorial urea library, read-out: % inhibition @ 50 nM
[8] = Table II screening results, crude combinatorial amide library
[9] = Table II screening results, crude combinatorial amide library, read-out: % inhibition @ 10 nM

## COc1cc(Nc2nc(N)c(-c3nc(-c4cccc(NC(=O)/C=C/c5ccccc5)c4)cs3)s2)cc(OC)c1OC
[1]
  inhibition at 0.15 µM: 36%

## COc1cccc(C(=O)Nc2cccc(-c3csc(-c4sc(NC(=O)NCCCN(CCO)CCO)nc4N)n3)c2)c1
[2]
  inhibition at 0.01 µM: 2%
[3]
  inhibition at 0.05 µM: 65%

## COc1cc(Nc2nc(N)c(-c3nc(-c4cc(NC(=O)[C@H]5CCC(=O)N5)ccc4C)no3)s2)cc(OC)c1OC
[4]
  inhibition at 0.001 µM: -4%
[5]
  inhibition at 0.01 µM: 13%

## COc1cccc(C(=O)Nc2cc(-c3noc(-c4sc(NC(=O)NCC(C)O)nc4N)n3)c(F)cc2F)c1 (stereo not drawn)
[6]
  inhibition at 0.05 µM: 78%

## CCN(CCNC(=O)Nc1nc(N)c(-c2nc(-c3cc(NC(=O)c4cccc(OC)c4)c(F)cc3F)cs2)s1)c1cccc(C)c1
[7]
  inhibition at 0.05 µM: 18%

## COc1cc(Nc2nc(N)c(-c3nc(-c4cccc(NC(=O)CCC5CCCC5)c4)cs3)s2)cc(OC)c1OC
[1]
  inhibition at 0.15 µM: 85%

## CCCCN(CC)CCNC(=O)Nc1nc(N)c(-c2nc(-c3cccc(NC(=O)c4cccc(OC)c4)c3)cs2)s1
[2]
  inhibition at 0.01 µM: 1%
[3]
  inhibition at 0.05 µM: 10%

## COc1cccc(C(=O)Nc2cccc(-c3csc(-c4sc(NC(=O)NCCN(C(C)C)C(C)C)nc4N)n3)c2)c1
[2]
  inhibition at 0.01 µM: 2%
[3]
  inhibition at 0.05 µM: 22%

## CNC(=O)Nc1nc(N)c(-c2nc(-c3cccc(NC(=O)C4CCSCN4C)c3)cs2)s1 (stereo not drawn)
[8]
  inhibition at 0.001 µM: 1%
[9]
  inhibition at 0.01 µM: 62%

## COc1cc(Nc2nc(N)c(-c3nc(-c4cccc(NC(=O)C5(c6ccccc6)CCCC5)c4)cs3)s2)cc(OC)c1OC
[1]
  inhibition at 0.15 µM: -10%

## COc1cc(Nc2nc(N)c(-c3nc(-c4cc(NC(=O)C5CCOC5)ccc4C)no3)s2)cc(OC)c1OC (stereo not drawn)
[4]
  inhibition at 0.001 µM: 16%
[5]
  inhibition at 0.01 µM: 6%

## COc1cc(Nc2nc(N)c(-c3nc(-c4cccc(NC(=O)/C=C/c5ccc(Cl)cc5)c4)cs3)s2)cc(OC)c1OC
[1]
  inhibition at 0.15 µM: 40%

## COc1cc(Nc2nc(N)c(-c3nc(-c4cccc(NC(=O)C(=O)c5c[nH]c6ccccc56)c4)cs3)s2)cc(OC)c1OC
[1]
  % inhibition @ 150 nM: 0%

## COc1cc(Nc2nc(N)c(-c3nc(-c4cccc(NC(=O)CC(C)c5ccccc5)c4)cs3)s2)cc(OC)c1OC (stereo not drawn)
[1]
  inhibition at 0.15 µM: 26%

## COc1cc(Nc2nc(N)c(-c3nc(-c4cc(NC(=O)c5cc(C)cc(=O)o5)ccc4C)no3)s2)cc(OC)c1OC
[4]
  inhibition at 0.001 µM: -2%
[5]
  inhibition at 0.01 µM: 66%

## COc1cc(Nc2nc(N)c(-c3nc(-c4cccc(NC(=O)C(C)c5ccccc5)c4)cs3)s2)cc(OC)c1OC (stereo not drawn)
[1]
  inhibition at 0.15 µM: 3%

## COc1ccccc1CCC(=O)Nc1cccc(-c2csc(-c3sc(Nc4cc(OC)c(OC)c(OC)c4)nc3N)n2)c1
[1]
  % inhibition @ 150 nM: 0%

## C/C=C/C(=O)Nc1cccc(-c2csc(-c3sc(NC(=O)NC)nc3N)n2)c1
[8]
  inhibition at 0.001 µM: -1%
[9]
  inhibition at 0.01 µM: -7%

## COc1cccc(C(=O)Nc2cc(-c3noc(-c4sc(NC(=O)NCCS(=O)(=O)O)nc4N)n3)c(F)cc2F)c1
[6]
  inhibition at 0.05 µM: 88%

## COc1cccc(C(=O)Nc2cc(-c3csc(-c4sc(NC(=O)NCC(=N)N)nc4N)n3)c(F)cc2F)c1
[7]
  inhibition at 0.05 µM: 17%

## COc1cccc(C(=O)Nc2cc(-c3noc(-c4sc(NC(=O)NCC(C)C)nc4N)n3)c(F)cc2F)c1 [drawing 804]
[6]
  inhibition at 0.05 µM: 20%

## CCC(O)CNC(=O)Nc1nc(N)c(-c2nc(-c3cc(NC(=O)c4cccc(OC)c4)c(F)cc3F)cs2)s1 (stereo not drawn)
[7]
  inhibition at 0.05 µM: 104%

## COc1cccc(C(=O)Nc2cc(-c3noc(-c4sc(NC(=O)NC5CCS(=O)(=O)C5)nc4N)n3)c(F)cc2F)c1 (stereo not drawn)
[6]
  inhibition at 0.05 µM: -7%

## CCN(CC)CCNC(=O)Nc1nc(N)c(-c2nc(-c3cc(NC(=O)c4cccc(OC)c4)c(F)cc3F)cs2)s1
[7]
  inhibition at 0.05 µM: 40%

## COc1cccc(C(=O)Nc2cccc(-c3csc(-c4sc(NC(=O)NCC(C)O)nc4N)n3)c2)c1 (stereo not drawn)
[2]
  inhibition at 0.01 µM: 7%
[3]
  inhibition at 0.05 µM: 126%

## COc1cc(Nc2nc(N)c(-c3nc(-c4cccc(NC(=O)c5ccc(C(=O)c6ccccc6)cc5)c4)cs3)s2)cc(OC)c1OC
[1]
  inhibition at 0.15 µM: 7%

## COc1cccc(C(=O)Nc2cccc(-c3csc(-c4sc(NC(=O)NCCCCN(C)C)nc4N)n3)c2)c1
[2]
  inhibition at 0.01 µM: -2%
[3]
  inhibition at 0.05 µM: 71%

## COc1cc(Nc2nc(N)c(-c3nc(-c4cccc(NC(=O)c5ccco5)c4)cs3)s2)cc(OC)c1OC
[1]
  inhibition at 0.15 µM: 15%

## COc1cc(Nc2nc(N)c(-c3nc(-c4cccc(NC(=O)c5cccc(C#N)c5)c4)cs3)s2)cc(OC)c1OC
[1]
  inhibition at 0.15 µM: 56%

## CNC(=O)Nc1nc(N)c(-c2nc(-c3cccc(NC(=O)C4=CCCN(C)C4)c3)cs2)s1
[8]
  inhibition at 0.001 µM: 2%
[9]
  inhibition at 0.01 µM: 43%

## COc1cc(Nc2nc(N)c(-c3nc(-c4cccc(NC(=O)c5ccoc5)c4)cs3)s2)cc(OC)c1OC
[1]
  inhibition at 0.15 µM: 7%
